Reference: patent US10167299B2, “1-(3-aminopropyl) substituted cyclic amine compounds, preparation method therefor, and pharmaceutical compositions and uses thereof” (SHANGHAI INSTITUTE OF MATERIA MEDICA, CHINESE ACADEMY OF …, priority 2013, dated 2019)
In brackets after ≈: the same amount, converted by molar mass. Like-named read-outs stand apart in the source and are kept apart here.

Legend:
[1] = Toxicity test of compounds on HOS-CD4-CCR5 cells (MTT); type: cell-based; conditions: human; HOS-CD4+-CCR5 cells (Table 7)
Experimental: (§1) The compound to be tested was subject to 5-fold dilution in a 96-well microtiter plate with RPMI-1640 or DMEM complete medium (containing 10% FBS) (Six dilution) triplicate for each dilution and 100 μl for each well. While wells not containing drugs were set as control. Into each well was added 100 μl of 4×10^5/ml PM1, HOS-CD4-CCR5 cells or 100 μl of 5×10^6/ml PHA stimulated PBMC. The cells were cultured at 37° C. with 5% CO2 for three days (PBMC cells were cultured for seven days and 100 μl of fresh RPMI-1640 complete medium was supplemented on the third day). Cytotoxicity was tested with MTT assay. OD values were measured by ELx800 microplate reader. The detection wavelength was 570 nm, and the reference wavelength was 630 nm.

[2] = system: HIV-1Ba-L virus strain; test: Inhibition of viral replication in PBMC infected with HIV-1Ba-L; type: cell-based
Experimental: (§2) The virus was titrated according to the modified method of Johnson & Byington. Briefly, the HIV-1 stock solution was subject to four-fold dilution in a 96-well plate (ten gradients) sextuplicate for each gradient, while setting six control-wells. Into each well was added 100 μl (5×10^6/ml) PHA-stimulated PBMC cells and final volume per well was 200 μl. The cells were cultured at 37° C. with 5% CO2. On the third day, 100 μl of fresh RPMI-1640 complete medium was supplemented. On the seventh day, the infected supernatant was collected and lysed with 0.5% Triton X100. The p24 antigen was detected by ELISA and TCID50 of virus was calculated according to Reed & Muench method (50% Tissue culture infection dose).
(§3) The compound to be tested was subject to 5-fold dilution in 48-well plate with RPMI-1640 complete medium (containing 10% FBS). The starting concentration was 1 μM, six dilutions were obtained, and each well contained 200 μl mixture. While wells not containing drugs were set as control. Virus (MOI=0.01) was added to 5×10^6/ml of PBMC cells which have been stimulated by PHA for 72 h. After homogeneously mixed, the mixture was immediately added to 48-well plate containing diluted drug and each well was added with 200 μl of mixture. MVC was used as positive control. The cells were cultured at 37° C. with 5% CO2 for seven days (drug with the same concentration was added on the third day). The supernatant was collected, lysed and inactivated with 0.5% Triton X-100. The inhibition effect of drug on HIV-1 replication was detected using p24 antigen capture ELISA method.

[3] = system: HIV-1SF162 virus strain; test: Inhibition activity on TZM-bl cells infected with HIV-1SF162; conditions: for EC50: Human immunodeficiency virus 1, TZM-bl; for therapeutic index (TI): TZM-bl cells infected with HIV-1SF162; for cytotoxicity in vitro and therapeutic index in words, versus positive control compound: TZM-bl cells infected with HIV-1SF162, conclusion from Table 3
[4] = system: HIV-1SF162 virus strain; test: Inhibition of viral replication in HOS-CD4-CCR5 cells infected with HIV-1SF162; type: cell-based
Experimental: (§4) On the day before the test, 1×10^5/ml of HOS-CD4-CCR5 cells were inoculated in 96-well plates with 100 μl for each well. The compound to be tested was subject to 5-fold dilution in 96-well microtiter plate with DMEM complete medium (containing 10% FBS). The starting concentration was 1 μM and six dilutions were obtained. Triplicate wells were set for each dilution and each well contained 100 μl mixture. While wells not containing drugs were set as control. The supernatant was removed and 100 μl of drug was added and incubated for 2 h. Then 100 μl of HIV-1SF162 and HIV-1Ba-L were added to dilute supernatant. The cells were infected for 1 h, free virus was washed out and drug with the same final concentration was added. MVC was used as positive control. The cells were cultured at 37° C. with 5% CO2 for three days. The supernatant was collected, lysed and inactivated with 0.5% Triton X-100. The inhibition effect of drug on HIV-1 replication was detected using p24 antigen capture ELISA method.

[5] = system: HIV-1SF162 virus strain; test: Inhibition of viral replication in PBMC infected with HIV-1SF162; type: cell-based
Experimental: as §2, with “On the third day, 100 μl of fresh RPMI-1640 complete medium was supplemented.” left out
as §3, with “The” for “The compound to be tested was subject to 5-fold dilution in 48-well plate with RPMI-1640 complete medium (containing 10% FBS). The”, “Virus (MOI=0.01) was added to 5×10^6/ml of PBMC cells which have been stimulated by PHA for 72 h.” left out

[6] = Cytotoxicity (CC50) in TZM-bl cells; type: cell-based; conditions: human; TZM-bl cells (Table 3); read-out: CC50
[7] = system: HIV-1KM018 virus strain; test: Inhibition of viral replication in PBMC infected with HIV-1KM018; type: cell-based
Experimental: as §2, with “On the third day, 100 μl of fresh RPMI-1640 complete medium was supplemented.” left out
as §3, with “The” for “The compound to be tested was subject to 5-fold dilution in 48-well plate with RPMI-1640 complete medium (containing 10% FBS). The”, “Virus (MOI=0.01) was added to 5×10^6/ml of PBMC cells which have been stimulated by PHA for 72 h.” left out

[8] = system: HIV-1Ba-L virus strain; test: Inhibition of viral replication in HOS-CD4-CCR5 cells infected with HIV-1Ba-L; type: cell-based
Experimental: as §4

[9] = Toxicity test of compounds on PBMC cells (MTT); type: cell-based; conditions: human, PBMC cells (Table 4)
Experimental: as §1

[10] = in vivo; conditions: male, rat
[11] = target: hERG (Homo sapiens (Human), UniProt Q12809)
Sequence of hERG (Q12809 whole entry): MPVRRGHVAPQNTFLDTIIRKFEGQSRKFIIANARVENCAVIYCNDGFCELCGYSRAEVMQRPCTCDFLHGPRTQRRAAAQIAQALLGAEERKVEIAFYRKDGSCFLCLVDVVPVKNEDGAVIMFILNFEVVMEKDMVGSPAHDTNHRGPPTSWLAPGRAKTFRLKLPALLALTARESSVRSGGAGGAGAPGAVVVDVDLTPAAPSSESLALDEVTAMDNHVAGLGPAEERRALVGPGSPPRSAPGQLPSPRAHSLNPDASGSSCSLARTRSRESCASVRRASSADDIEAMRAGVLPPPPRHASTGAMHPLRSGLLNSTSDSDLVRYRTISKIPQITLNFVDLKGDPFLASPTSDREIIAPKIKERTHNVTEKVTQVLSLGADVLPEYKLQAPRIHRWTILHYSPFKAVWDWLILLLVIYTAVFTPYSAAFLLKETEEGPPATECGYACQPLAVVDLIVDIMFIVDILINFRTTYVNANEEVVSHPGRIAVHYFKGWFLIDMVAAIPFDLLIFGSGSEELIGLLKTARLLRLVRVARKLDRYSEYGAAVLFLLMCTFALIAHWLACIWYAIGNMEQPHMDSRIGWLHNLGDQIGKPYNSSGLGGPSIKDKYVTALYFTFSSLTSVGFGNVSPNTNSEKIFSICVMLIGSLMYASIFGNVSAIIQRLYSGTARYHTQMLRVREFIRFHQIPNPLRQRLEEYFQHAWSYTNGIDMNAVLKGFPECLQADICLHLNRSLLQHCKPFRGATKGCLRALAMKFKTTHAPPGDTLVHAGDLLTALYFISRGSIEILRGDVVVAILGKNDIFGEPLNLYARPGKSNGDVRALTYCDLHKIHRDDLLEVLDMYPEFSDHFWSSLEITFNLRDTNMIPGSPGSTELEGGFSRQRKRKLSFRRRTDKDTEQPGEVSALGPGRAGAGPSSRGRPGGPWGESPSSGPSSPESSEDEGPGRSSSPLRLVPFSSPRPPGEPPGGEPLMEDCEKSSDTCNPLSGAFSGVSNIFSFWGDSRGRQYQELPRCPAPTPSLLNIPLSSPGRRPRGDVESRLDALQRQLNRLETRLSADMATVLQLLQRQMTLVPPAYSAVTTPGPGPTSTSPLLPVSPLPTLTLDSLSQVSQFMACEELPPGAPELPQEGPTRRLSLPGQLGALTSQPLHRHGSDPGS

[12] = Human immunodeficiency virus 1, PBMC
[13] = Human immunodeficiency virus 1, HOS-CD4-CCR5

`Cc1nnc(C(C)C)n1C1CC2CCC(C1)N2CC[C@H](NC(=O)C1CCC(F)(F)CC1)c1cccs1` (stereo partly drawn) [Compound 14, 4,4-difluoro-N-[(1S)-3-[exo-3-(3-isopropyl-5-methyl-4H-1,2,4-triazol-4-yl)-8-azabicyclo[3.2.1]octane-8-yl]-1-(thiophen-2-yl)propyl]cyclohexane-1-carboxamide] gave a CC50 at 3 days [1] of 370 µg/mL (≈ 711 µM), an EC50 ([2]; Human immunodeficiency virus 1, PBMC cells infected with HIV-1Ba-L, read-out: EC50) of 0.0197 µg/mL (≈ 0.0379 µM) and an EC50 [3] of 0.00359 µg/mL (≈ 0.00691 µM). The “therapeutic index (TI)” value [3] was greater than 55710.31, the “cytotoxicity in vitro and therapeutic index in words, versus positive control compound” value [3] was “better than positive control compound” and the EC50 ([4]; Human immunodeficiency virus 1, HOS-CD4+-CCR5 cells infected with HIV-1SF162, read-out: EC50) was 0.0131 µg/mL (≈ 0.0251 µM). For the same compound, the EC50 ([5]; Human immunodeficiency virus 1, PBMC cells infected with HIV-1SF162, read-out: EC50) was 0.00158 µg/mL (≈ 0.00304 µM), the CC50 [6] was greater than 200 µg/mL and the EC50 ([7]; Human immunodeficiency virus 1, PBMC cells infected with HIV-1KM018, read-out: EC50) was 0.00377 µg/mL (≈ 0.00725 µM). For the same compound, the EC50 ([8]; Human immunodeficiency virus 1, HOS-CD4+-CCR5 cells infected with HIV-1Ba-L, read-out: EC50) was 0.00074 µg/mL (≈ 0.00142 µM), the CC50 at 7 days ([9]; PHA stimulated PBMC) was 268 µg/mL (≈ 515 µM) and the bioavailability [10] was 7.85%. The AUC(0-t) ([10]; 10 mg/kg) was 7050 ng·h/mL, the AUC(0-inf) ([10]; iv, 10 mg/kg) was 7060 ng·h/mL and the AUC(0-t) ([10]; iv, 10 mg/kg) was 7050 ng·h/mL. For the same compound, the Cmax ([10]; iv, 10 mg/kg) was 6840 ng/mL, the MRT ([10]; iv, 10 mg/kg) was 0.71 h and the Tmax ([10]; iv, 10 mg/kg) was 0.25 h. It also gave a half-life ([10]; iv, 10 mg/kg) of 0.77 h, an AUC(0-inf) ([10]; po, 20 mg/kg) of 1190 ng·h/mL and an AUC(0-t) ([10]; po, 20 mg/kg) of 1110 ng·h/mL. For the same compound, the Cmax ([10]; po, 20 mg/kg) was 266 ng/mL, the MRT ([10]; po, 20 mg/kg) was 3.33 h and the Tmax ([10]; po, 20 mg/kg) was 4 h. It also gave a bioavailability ([10]; po, 20 mg/kg) of 7.85% and a half-life ([10]; po, 20 mg/kg) of 2.12 h.
In the case of `Cc1ccc([C@H](CCN2C3CCC2CC(n2c(C)nnc2C(C)C)C3)NC(=O)C2CCC(F)(F)CC2)s1` (stereo partly drawn) [Compound 29, 4,4-difluoro-N-[(1S)-3-[exo-3-(3-isopropyl-5-methyl-4H-1,2,4-triazol-4-yl)-8-azabicyclo[3.2.1]octane-8-yl]-1-(5-methylthiophen-2-yl)propyl]cyclohexane-1-carboxamide], the CC50 at 3 days [1] is reported as greater than 200 µg/mL, the EC50 [2, 12] is reported as 0.236 µg/mL (≈ 0.442 µM) and the “therapeutic index (TI)” value ([2]; PBMC cells infected with HIV-1Ba-L) is reported as 818.3. For the same compound, the EC50 [3] was 0.012 µg/mL (≈ 0.0225 µM), the “therapeutic index (TI)” value [3] was greater than 16666.67 and the “cytotoxicity in vitro and therapeutic index in words, versus positive control compound” value [3] was “comparable with the positive control compound”. The EC50 [4, 13] was 0.0186 µg/mL (≈ 0.0348 µM), the EC50 [5, 12] was 0.00505 µg/mL (≈ 0.00946 µM) and the IC50 [11] was 8.44 µM. The “hERG inhibition activity in words, versus positive control compounds” value [11] was “better that those of positive control compounds”, the CC50 at 3 days [6] was greater than 200 µg/mL and the EC50 [7, 12] was 0.103 µg/mL (≈ 0.193 µM). For the same compound, the “therapeutic index (TI)” value ([7]; PBMC cells infected with HIV-1KM018) was 1937.2, the “therapeutic index (TI)” value ([8]; HOS-CD4+-CCR5 cells infected with HIV-1Ba-L) was greater than 9144 and the EC50 [8, 13] was 0.0219 µg/mL (≈ 0.041 µM). It also gave a CC50 at 7 days [9] greater than 200 µg/mL, a bioavailability [10] of 40.1% and an AUC(0-inf) ([10]; 10 mg/kg) of 2330 ng·h/mL. It also gave an AUC(0-t) ([10]; 10 mg/kg) of 2330 ng·h/mL, a Cmax ([10]; 10 mg/kg) of 1690 ng/mL and an MRT ([10]; 10 mg/kg) of 2.29 h. For the same compound, the Tmax ([10]; 10 mg/kg) was 0.25 h, the half-life ([10]; 10 mg/kg) was 1.6 h and the AUC(0-inf) ([10]; po, 20 mg/kg) was 2790 ng·h/mL. The AUC(0-t) ([10]; po, 20 mg/kg) was 1870 ng·h/mL, the Cmax ([10]; po, 20 mg/kg) was 580 ng/mL and the MRT ([10]; po, 20 mg/kg) was 4.79 h. For the same compound, the Tmax ([10]; po, 20 mg/kg) was 2 h and the half-life ([10]; po, 20 mg/kg) was 32.8 h.
